Results published in US20170003277A1 (priority 2015, published 2017).

Tests used:
[1] = Level of Copaxone in THP-1 cell culture medium over time; assay type: physicochemical; conditions: THP-1 culture medium, over 24 hours; 50 μg/mL spiked
mouse splenocytes = assay: Microarray gene expression of ex vivo activated splenocytes from GA-immunized mice (Copaxone, Natco, Escadra, Probioglat, Hangzhou, TV-5010); assay type: cell-based
Source text: After 3 days, the mice were sacrificed and cells from their spleens (splenocytes) were isolated because such cells are representative of, and commonly utilized as a gold standard to study the immune system.
Given the robustness of the model established in our first mouse splenocyte study, we sought to expand the scope of the investigation using the exact same study design, but with an expanded set of treatments (FIG. 1). In addition to comparing Copaxone® to a purported foreign generic version, we also sought to compare purported generics from various manufacturers to each other.
Extraction of total RNA from activated splenocytes was extracted using PerfectPure RNA Cultures CEKK kit 50 (5Prime GmbH, Hamburg, Germany) and following the manufacturer's instructions. RNA quality was assessed using the absorbance ratio at 260/280 nm and gel electrophoresis (Experion, Bio-Rad, Hercules, Calif., USA). Total RNA extracted from samples was hybridized to Illumina Mouse WG-6V2 microarray chips containing more than 45,200 transcripts.
Samples were randomized on the chips to avoid batch effects. Illumina's BeadStudio software was utilized for image processing, quantification of signal intensity per bead, and background signal correction. Multiple probes were analyzed for a given gene were averaged and batch correction was conducted using Partek. […]

glatiramer acetate [Copaxone®]
Copaxone concentration in cell culture medium [1]: 44 to 52 µg/mL
IL1B expression, Copaxone compared with Natco purported generic (mouse splenocytes; first mouse splenocyte study, adjusted p=0.043 by ANOVA): significantly lower IL1B expression
IL1B expression relative to medium (mouse splenocytes; mouse splenocytes): extremely effective in downregulating IL1B
